pEC50, pIC50: −log10 of the molar value. Where “and” joins values, the source holds several entries; their conditions need not be identical. Equal values may be shown once.
Experiments:
[1] = test system: 3T3 cells (src−/−) stably transfected with c-Src Y529F; experiment: Global phosphotyrosine Western blot (4G10) in c-Src Y529F-transfected cells; format: cell-based, murine
Experimental: Cells were cultured in 48-well tissue culture plates in DMEM+10% FBS until they reached confluence. After removing serum-containing medium, cells were washed with serum-free DMEM, and small molecule inhibitor in serum-free DMEM with 2% DMSO was added to each well and incubated overnight. After incubation with compound, cells were washed once with PBS and lysed in Cell Extraction Buffer (Invitrogen), a modified RIPA buffer, supplemented with PMSF and protease inhibitors according to the manufacturer's instruction. Cell lysates were quantified by BCA assay (Pierce Biotechnology) and an equivalent amount of lysate was loaded into each lane of a 4-12% polyacrylamide gel, and separated by SDS-PAGE. Separated proteins were transferred onto a PVDF membrane, and blocked for one hour with 5% BSA in TBST buffer. The membrane was then incubated overnight at 4° C. with 4G10 anti-phosphotyrosine antibody (Millipore) and a β-tubulin antibody (Sigma) as a loading control. Fluorescent anti-mouse and anti-rabbit secondary antibodies (LI-COR) were added prior to imaging the membrane.
Having obtained macrocycle Src kinase inhibitors with nanomolar in vitro potency, the potency for inhibition of Src kinase activity in living cells was assessed. Since intracellular Src kinase signaling is complex and tightly regulated, a cell culture line transfected with a constitutively active form of murine c-Src was chosen. 3T3 cells (src−/−) stably transfected with c-Src Y529F were compared to 3T3 cells (src−/−) transfected with empty vector. Anti-phosphotryosine Western blotting with the 4G10 antibody (Millipore) indicated a marked difference between global phosphotyrosine levels in the c-Src Y529F transfected cells compared to those transfected with empty vector; in fact, almost all detectable intracellular phosphotyrosine in the Src-transfected cell line was a result of c-Src Y529F and downstream signaling (FIG. 23, upper panel, compare lanes 2 and 3, transfected and trated with DMSO, against lanes 8 and 9, transfected with empty vector).
Briefly, cells were seeded in a 48-well plate and grown to confluence in Dulbecco's Modified Eagle Medium (DMEM) supplemented with 10% fetal bovine serum (FBS). Individual wells were then treated with 10 or 100 μM concentration of macrocycle in serum-free DMEM overnight. After removing the small molecule and washing with phosphate-buffered saline, cells were lysed in radioimmunoprecipitation assay (RIPA) buffer, and global phosphotyrosine levels were quantified by Western blot.

[2] = target: Akt3 (Homo sapiens, UniProt Q9Y243); experiment: Z'-LYTE kinase assay (Invitrogen SelectScreen); format: biochemical
Source text: (§1) Macrocycles A10-B1-C11-D5 and A10-B8-C11-D5 were enriched 2- to 6-fold upon selection for binding Akt3, MAPKAPK2, Pim1, and VEGFR2 (FIG. 6). These two macrocycles are structurally similar, sharing nitrophenylalanine (A10) and cyclohexylstatine (C11) building blocks as well as the same lysine scaffold (D5), and differ only at the B building block with either furylalanine (B1) or cyclohexylalanine (B8) (FIG. 6). For assay purposes, the macrocycles were synthesized with C-terminal PEG-diamine linkers to aid solubility, and then tested for the ability to inhibit Akt3, MAPKAPK2, Pim1 and VEGFR2.
(§2) Src IC50 determinations and single-point inhibition measurements were performed using Invitrogen's Z′-LYTE Tyr 02 assay kit according to the manufacturer's protocols. All kinase assays were performed at ATP concentrations near KM,ATP values, except where noted otherwise. Active human Src kinase was obtained from Millipore. For kinome profiling and IC50 determinations against non-Src kinases, compounds were submitted to Invitrogen's SelectScreen Kinase Profiling Service.

[3] = target: Pim1 (Homo sapiens, UniProt P11309); experiment: Z'-LYTE kinase assay (Invitrogen SelectScreen); format: biochemical; conditions: for pIC50: Pim1
Source text: as §1, §2

[4] = target: MAPKAPK2 (MK2) (Homo sapiens, UniProt P49137); experiment: Z'-LYTE kinase assay (Invitrogen SelectScreen); format: biochemical; conditions: for pIC50: MK2 (MAPKAPK2)
Source text: as §1, §2

[5] = target: p38α-MAPKAPK2 kinase cascade (P38α-MK2) (Homo sapiens, UniProt P49137+Q16539); experiment: Z'-LYTE kinase cascade assay (Invitrogen SelectScreen); format: biochemical
Source text: as §1, §2

[6] = target: T1, full-length chicken c-Src (Gallus gallus, UniProt P00523); experiment: Z'-LYTE kinase assay (Tyr 02 substrate peptide), full-length c-Src; format: biochemical; conditions: for pIC50: full-length chicken c-Src, ATP near KM (50 μM)
T1 construct: assayed against full-length chicken c-Src
Experimental: (§3) For the FRET-based endpoint assay, kinase assays were performed using Invitrogen's Z′-LYTE kinase assay using the Tyr 02 substrate peptide (based upon the optimal Abl substrate peptide […]) according to the manufacturer's instructions. Assays were performed at near KM ATP concentrations for full-length c-Src and full-length c-Src T338I-50 μM and 7 μM, respectively.
Derivatives of MC4 were synthesized by Fmoc solid-phase peptide synthesis and assayed against full-length chicken c-Src using Invitrogen's Z′-LYTE kinase assay. […] Holding the amino acids at the A and C positions constant, variants of MC4 containing phenylalanine, cyclohexylalanine, pentafluorophenylalanine, and N-methyl-phenylalanine at the B position in place of furylalanine were synthesized and assayed.

[7] = test system: Src Thr338Ile; experiment: Inhibition of Src gatekeeper mutant; format: biochemical, chicken
Source text: (§4) Kinase domain constructs of human c-Abl (residues 229-512), chicken c-Src (residues 251-533 and residues 83-533), murine Lck (residues 227-509), and human Hck (residues 166-445) were expressed as previously described (Seeliger, Young et al. 2005; Seeliger, Nagar et al. 2007; the entire contents of each of which are incorporated by reference herein). Mutations were introduced into chicken c-Src (residues 251-533) (T338I, C277Q, L297M) by site-directed mutagenesis and verified by DNA sequencing.
as §3

[8] = target: HCK (Homo sapiens, UniProt P08631); experiment: Continuous spectrophotometric kinase activity assay; format: biochemical; design: Kinase domain constructs of human c-Abl (residues 229-512), chicken c-Src (residues 251-533 and residues 83-533), murine Lck (residues 227-509), and human Hck (residues 166-445); made in house
Source text: as §4
(§5) In vitro kinase inhibition assays were performed using either a continuous spectrophotometric assay or a FRET-based endpoint assay.
(§6) The original characterization of kinase inhibition was performed with a commercial kinase assay that relies on a fluorescently labeled peptide kinase substrate (Z-LYTE, Invitrogen). For further characterization, a continuous spectrophotometric kinase activity assay was employed that is easily adapted to different substrate peptides as well as a wider range of peptide and ATP concentrations.

[9] = target: T2, Src kinase domain (chicken c-Src residues 251-533) (Gallus gallus, UniProt P00523); experiment: as above; format: biochemical; conditions: for pIC50: Src kinase domain
T2 construct: chicken c-Src (residues 251-533 and residues 83-533); made in house
Source text: as §4, §5, §6

[10] = target: T3, Abl (Homo sapiens, UniProt P00519); experiment: as above; format: biochemical
T3 construct: human c-Abl (residues 229-512); made in house
T3 sequence (P00519 229-512): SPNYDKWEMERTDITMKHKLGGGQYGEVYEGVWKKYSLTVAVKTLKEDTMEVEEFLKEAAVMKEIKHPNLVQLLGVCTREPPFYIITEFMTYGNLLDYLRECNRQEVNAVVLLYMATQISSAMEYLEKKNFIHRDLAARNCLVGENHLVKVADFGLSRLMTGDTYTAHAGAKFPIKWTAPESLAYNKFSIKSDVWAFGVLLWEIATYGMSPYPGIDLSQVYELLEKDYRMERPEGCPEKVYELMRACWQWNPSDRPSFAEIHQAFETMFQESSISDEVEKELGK
Source text: as §4, §5, §6

[11] = target: T4, Lck (Mus musculus, UniProt P06240); experiment: as above; format: biochemical, murine
T4 construct: murine Lck (residues 227-509); made in house
Source text: as §4, §5, §6

[12] = target: VEGFR2 (KDR) (Homo sapiens, UniProt P35968); experiment: Z'-LYTE kinase assay (Invitrogen SelectScreen); format: biochemical
Source text: as §1, §2

[13] = 10 or 100 μM macrocycle overnight
[14] = 5 μM ATP, 100 μM Src optimal peptide
[15] = 5 μM ATP, 100 μM Src optimal peptide, listed as Macrocycle 1.2
[16] = 5 μM ATP, 300 μM Src optimal peptide
[17] = 250 μM ATP, 300 μM Src optimal peptide

Chain of Akt3 (Q9Y243 whole entry): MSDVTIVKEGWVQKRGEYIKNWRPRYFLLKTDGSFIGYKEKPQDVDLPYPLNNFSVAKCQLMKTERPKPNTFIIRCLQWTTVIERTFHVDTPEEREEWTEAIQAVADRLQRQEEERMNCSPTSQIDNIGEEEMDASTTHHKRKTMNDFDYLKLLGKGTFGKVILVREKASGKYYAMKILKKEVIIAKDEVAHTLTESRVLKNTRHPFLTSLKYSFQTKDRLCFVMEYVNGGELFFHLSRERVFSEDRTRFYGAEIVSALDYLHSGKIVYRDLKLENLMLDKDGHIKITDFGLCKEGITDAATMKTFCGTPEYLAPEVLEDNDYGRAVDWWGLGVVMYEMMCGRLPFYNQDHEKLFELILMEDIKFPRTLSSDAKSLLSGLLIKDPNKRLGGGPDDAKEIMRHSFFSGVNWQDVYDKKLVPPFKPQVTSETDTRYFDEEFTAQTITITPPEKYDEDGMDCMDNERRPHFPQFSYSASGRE
Chain of p38α-MAPKAPK2 kinase cascade (P38α-MK2) (Q16539 whole entry): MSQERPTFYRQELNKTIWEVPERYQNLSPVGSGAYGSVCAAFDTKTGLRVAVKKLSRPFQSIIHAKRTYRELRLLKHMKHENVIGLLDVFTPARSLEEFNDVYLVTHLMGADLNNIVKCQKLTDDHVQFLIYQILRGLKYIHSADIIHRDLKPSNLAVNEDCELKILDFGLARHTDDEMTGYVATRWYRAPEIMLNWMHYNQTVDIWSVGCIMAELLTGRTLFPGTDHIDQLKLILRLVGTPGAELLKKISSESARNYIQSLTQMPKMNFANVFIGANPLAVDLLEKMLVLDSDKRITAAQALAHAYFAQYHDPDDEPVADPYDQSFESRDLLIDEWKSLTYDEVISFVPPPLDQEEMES
Chain of p38α-MAPKAPK2 kinase cascade (P38α-MK2) (P49137 whole entry): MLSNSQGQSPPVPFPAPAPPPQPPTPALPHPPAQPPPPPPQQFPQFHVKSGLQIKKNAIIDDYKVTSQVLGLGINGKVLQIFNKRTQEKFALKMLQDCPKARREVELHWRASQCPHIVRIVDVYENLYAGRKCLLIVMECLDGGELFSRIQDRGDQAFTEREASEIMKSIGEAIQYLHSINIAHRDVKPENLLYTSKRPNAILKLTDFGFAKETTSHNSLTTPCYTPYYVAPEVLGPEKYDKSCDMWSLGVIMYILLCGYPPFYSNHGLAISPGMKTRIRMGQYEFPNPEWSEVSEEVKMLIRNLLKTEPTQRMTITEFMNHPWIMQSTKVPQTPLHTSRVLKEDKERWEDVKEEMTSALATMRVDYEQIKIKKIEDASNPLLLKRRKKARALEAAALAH
T4 sequence (P06240 227-509): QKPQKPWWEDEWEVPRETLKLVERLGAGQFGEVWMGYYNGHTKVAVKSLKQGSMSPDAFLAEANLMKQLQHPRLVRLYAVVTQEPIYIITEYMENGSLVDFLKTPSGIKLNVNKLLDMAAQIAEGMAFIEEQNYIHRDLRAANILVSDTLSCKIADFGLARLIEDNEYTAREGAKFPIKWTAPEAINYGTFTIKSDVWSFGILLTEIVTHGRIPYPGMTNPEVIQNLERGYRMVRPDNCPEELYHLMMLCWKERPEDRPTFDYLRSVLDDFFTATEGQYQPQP
Chain of HCK (P08631 262-515 limits assumed): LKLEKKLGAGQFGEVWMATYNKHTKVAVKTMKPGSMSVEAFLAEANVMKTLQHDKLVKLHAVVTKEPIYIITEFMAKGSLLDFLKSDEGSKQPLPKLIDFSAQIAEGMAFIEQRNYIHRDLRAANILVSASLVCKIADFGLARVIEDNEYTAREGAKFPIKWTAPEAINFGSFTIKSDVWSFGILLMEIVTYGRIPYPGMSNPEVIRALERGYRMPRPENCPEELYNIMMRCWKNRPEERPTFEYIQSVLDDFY
Chain of Pim1 (P11309 whole entry): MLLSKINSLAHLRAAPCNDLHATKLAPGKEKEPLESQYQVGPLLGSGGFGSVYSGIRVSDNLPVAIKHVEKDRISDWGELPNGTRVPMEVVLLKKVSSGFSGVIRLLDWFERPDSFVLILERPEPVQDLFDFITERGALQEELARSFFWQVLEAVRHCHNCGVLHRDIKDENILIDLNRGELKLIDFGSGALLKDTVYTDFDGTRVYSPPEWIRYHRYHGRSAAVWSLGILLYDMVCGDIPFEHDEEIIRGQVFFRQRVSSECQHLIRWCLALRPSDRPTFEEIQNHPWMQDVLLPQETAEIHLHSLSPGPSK
Chain of MAPKAPK2 (MK2) (P49137 whole entry): as the sequence (P49137 whole entry) above
Chain of VEGFR2 (KDR) (P35968 20-1356): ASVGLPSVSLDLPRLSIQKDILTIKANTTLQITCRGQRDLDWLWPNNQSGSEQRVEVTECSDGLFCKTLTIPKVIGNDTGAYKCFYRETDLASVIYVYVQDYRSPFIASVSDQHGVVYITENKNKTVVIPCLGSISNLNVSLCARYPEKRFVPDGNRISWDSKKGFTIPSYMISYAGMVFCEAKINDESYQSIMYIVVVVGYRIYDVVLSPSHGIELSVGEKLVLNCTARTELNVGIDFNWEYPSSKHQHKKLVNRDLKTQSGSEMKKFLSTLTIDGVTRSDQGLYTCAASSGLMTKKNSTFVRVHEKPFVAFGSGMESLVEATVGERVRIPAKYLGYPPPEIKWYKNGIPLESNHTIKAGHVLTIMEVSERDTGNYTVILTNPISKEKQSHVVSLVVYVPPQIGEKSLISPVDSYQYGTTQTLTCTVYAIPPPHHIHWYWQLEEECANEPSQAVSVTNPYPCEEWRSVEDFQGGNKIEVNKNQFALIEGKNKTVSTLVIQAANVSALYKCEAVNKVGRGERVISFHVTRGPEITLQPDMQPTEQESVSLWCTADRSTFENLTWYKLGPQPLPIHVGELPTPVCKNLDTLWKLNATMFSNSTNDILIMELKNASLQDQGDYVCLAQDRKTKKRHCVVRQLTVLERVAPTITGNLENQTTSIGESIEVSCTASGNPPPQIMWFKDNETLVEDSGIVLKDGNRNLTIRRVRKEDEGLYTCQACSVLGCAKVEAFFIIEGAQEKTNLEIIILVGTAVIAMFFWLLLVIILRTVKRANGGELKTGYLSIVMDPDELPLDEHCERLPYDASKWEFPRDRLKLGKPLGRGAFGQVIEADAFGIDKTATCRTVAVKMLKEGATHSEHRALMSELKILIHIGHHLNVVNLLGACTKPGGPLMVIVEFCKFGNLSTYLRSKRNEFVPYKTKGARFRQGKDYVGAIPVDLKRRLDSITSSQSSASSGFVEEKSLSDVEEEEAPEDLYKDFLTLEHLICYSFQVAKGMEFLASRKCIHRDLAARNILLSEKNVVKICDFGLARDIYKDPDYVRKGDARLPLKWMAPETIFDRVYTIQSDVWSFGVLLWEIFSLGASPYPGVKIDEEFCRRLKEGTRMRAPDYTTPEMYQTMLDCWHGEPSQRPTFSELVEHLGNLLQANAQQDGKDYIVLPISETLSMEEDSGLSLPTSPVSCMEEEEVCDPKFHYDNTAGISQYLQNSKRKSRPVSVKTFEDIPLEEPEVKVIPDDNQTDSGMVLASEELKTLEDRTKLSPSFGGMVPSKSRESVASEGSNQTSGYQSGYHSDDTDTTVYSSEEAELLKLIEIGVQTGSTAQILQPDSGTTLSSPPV

`CC(C)(C)n1nc(-c2ccc(Cl)cc2)c2c(N)ncnc21` [PP2, reference compound] was tested. Which “reduction of global phosphotyrosine levels (in words)” value ([1]; 10 μM) did it give?
The value was “reduction of global phosphotyrosine to levels comparable with those observed in the cells transfected with empty vector”.

Which results are given for `NCCOCCOCCNC(=O)[C@@H]1CCCCNC(=O)[C@H](Cc2ccc([N+](=O)[O-])cc2)NC(=O)[C@H](CC2CCCCC2)NC(=O)C[C@H](O)[C@H](CC2CCCCC2)NC(=O)/C=C\C(=O)N1` [cis-A10-B8-C11-D5]?
pIC50 ([2]; Akt3): 5.06 and 5.08; pIC50 [3]: 5.12 and 5.14; pIC50 [4]: 5.21; pIC50 [5]: 5.47

What does the source list for `NCCOCCOCCNC(=O)[C@@H]1CNC(=O)[C@@H](Cc2ccc(C(=O)c3ccccc3)cc2)NC(=O)[C@H](CC2CCCCC2)NC(=O)[C@H](C/C=C/c2ccccc2)NC(=O)/C=C\C(=O)N1` [cis-A12-B8-C10-D8]?
pIC50 [3]: 4.77; pIC50 [4]: 4.33; pIC50 [5]: 4.85

`NC(=O)[C@@H]1CCCNC(=O)[C@H](Cc2ccc([N+](=O)[O-])cc2)NC(=O)[C@H](Cc2ccc(F)cc2)NC(=O)[C@H](CC2CCCCC2)NC(=O)/C=C/C(=O)N1` [MC4.3] was tested. Which “Src inhibition relative to parent compound (in words)” value [6] did it give?
Its value is “retained all of the parent compound activity”.

What about the “inhibition of Src Thr338Ile gatekeeper mutant (in words)” value [7] of the same molecule?
The value was “retained their inhibition potency”.

And the “reduction of global phosphotyrosine levels (in words)” value [1, 13]?
Its value is “higher levels of tyrosine phosphorylation inhibition”.

Which results are given for `O=C1/C=C\C(=O)N[C@@H](CC2CCCCC2)C(=O)N[C@@H](Cc2ccccc2)C(=O)N[C@@H](CCCNC(=O)c2cnccn2)C(=O)NCC[C@@H](C(=O)O)N1` [MC1.2]?
increase in Src inhibition potency relative to parent macrocycle [6]: > 150 fold; pIC50 [6]: ≥ 8.40; reduction of global tyrosine phosphorylation (in words) ([1]; 100 μM): did not reduce global tyrosine phosphorylation; pIC50 [8, 14]: 6.44; pIC50 [8, 15]: ≥ 6.44; pIC50 [8, 16]: 6.34; pIC50 [8, 17]: 6.00; pIC50 [9, 14]: 7.15; pIC50 [9, 15]: ≥ 7.15; pIC50 [9, 16]: 6.92; pIC50 [9, 17]: 6.85; increase in IC50 upon increasing substrate peptide 3-fold to 300 μM ([9]; Src optimal substrate peptide 100 to 300 μM): 50%; pIC50 [10, 14]: < 4.00; pIC50 [10, 16]: < 4.00; pIC50 [10, 17]: < 4.00; pIC50 [11, 14]: 5.40; pIC50 [11, 15]: ≥ 6.06; pIC50 [11, 16]: 5.72; pIC50 [11, 17]: 5.62

For `NC(=O)[C@@H]1CCCNC(=O)[C@H](Cc2ccc([N+](=O)[O-])cc2)NC(=O)[C@H](Cc2ccccc2)NC(=O)[C@H](CC2CCCCC2)NC(=O)/C=C/C(=O)N1` [MC4.2], which “increase in Src inhibition potency relative to parent macrocycle” value [6] is on record?
The value was greater than 10 fold.

And the pIC50 [6]?
Its pIC50 is 8.22.

And the “inhibition of Src Thr338Ile gatekeeper mutant (in words)” value [7]?
Its value is “retained their inhibition potency”.

And the “reduction of global phosphotyrosine levels (in words)” value [1, 13]?
The value was “modest reduction”.

And the pEC50 ([1]; overnight treatment, serum-free DMEM, read-out: EC50 of reduction of global phosphotyrosine levels)?
The pEC50 was less than 4.00.

And the pIC50 [9, 14]?
The pIC50 was 6.22.

Which “inhibition of Akt3 (in words)” value ([2]; isolated kinase enzyme) does the source give for `NCCOCCOCCNC(=O)[C@@H]1CCCCNC(=O)[C@H](Cc2ccc([N+](=O)[O-])cc2)NC(=O)[C@H](Cc2ccco2)NC(=O)C[C@H](O)[C@H](CC2CCCCC2)NC(=O)/C=C\C(=O)N1` [cis-A10-B1-C11-D5] here?
Its value is “did not inhibit”.

And the “increase of VEGFR2 enzyme activity” value ([12]; 10 μM macrocycle)?
The value was 70%.

And the “increase of VEGFR2 enzyme activity” value ([12]; 100 μM compound)?
The value was 300%.

And the “inhibition of Pim1 (in words)” value ([3]; isolated kinase enzyme, non-DNA-linked form)?
The value was “did not inhibit”.

What about the “inhibition of MAPKAPK2 (in words)” value ([4]; isolated kinase enzyme) of the same molecule?
The value was “did not inhibit”.

What about the pIC50 [5] of the same molecule?
The pIC50 was 5.19.

Reference: patent publication US8975232B2, “Macrocyclic kinase inhibitors and uses thereof” (President and Fellows of Harvard College, priority 2010, dated 2015)
